Measured values published in patent US20130101628A1 (NORTHWESTERN UNIVERSITY, priority 2011, published 2013).
* marks the point of attachment. Palmitoyl = CCCCCCCCCCCCCCCC(=O)*

Tests used:
[1] = tested on: chicken chorioallantoic membrane (CAM); assay: Shell-less chicken chorioallantoic membrane (CAM) angiogenesis assay; format: in vivo; conditions: 2 mM in PBS dried on coverslip, three days following treatment; saline 132%
Text: An established assay reflecting in vivo angiogenesis, the chicken chorioallantoic membrane (CAM) assay, was used to evaluate the angiogenic potential of the VEGF-PA of the present examples. This assay utilizes the extra-embryonic allantois, a tissue derived from the mesoderm that develops into a densely vascularized membrane. A common deviation from the traditional assay is to remove the shell and conduct the assay on a shell-less embryo, termed the shell-less CAM assay, as we have performed here. Fertilized white leghorn chicken eggs (Phil's Fresh Eggs, Forreston, Ill.) were received and cultured in a temperature controlled, humidified egg incubator. On embryonic day 3, eggs were cracked within a sterile tissue culture hood into round 100 mm petri dishes. Fertilized embryos were then transferred to a water-jacketed CO2 incubator, set to 37.5° C., 1% CO2 and 100% relative humidity. On embryonic day 10, the material treatment was dissolved at 2 mM in PBS, evaporated onto the surface of a 5 mm round glass cover slip, and placed facing down on top of the CAM (n=16/group). Digital images were captured through the eyepiece of a Nikon stereomicroscope and vessel density was quantified by the number of intersections of vessel structures with the edge of the cover slip and expressed relative to the initial time-point. Images were captured daily, beginning at embryonic day 10 and culminating on embryonic day 13, the standard range over which the CAM assay is performed. Additionally, images were assessed qualitatively for morphological differences in the CAM vasculature including spoking, branching and leakage.

HUVECs = assay: HUVEC migration scratch assay; format: cell-based, human; conditions: 1 μM in EBM with 0.5% FBS, 18 hours; untreated 25.2%
Experimental: To evaluate cell migration, endothelial basal media (EBM) without growth factors (Lonza) was supplemented with 0.5% FBS in order to prevent apoptosis but not promote significant migration or proliferation. Cells were grown to confluence in a 12 well plate and a 1 ml pipette tip was used to create a denuded scratch and the surface was washed twice with PBS to remove detached cells. The average scratch width at the initial time-point was […] Markings were placed on the underside of the plate to ensure the same region of the scratch was recorded in each image. […] The total pixel area of the scratch at the initial time-point was recorded using ImageJ analysis software, and the percent migration was determined from the reduction in denuded area at 18 hours.

With “CH3(CH2)14C(O)— VVAAKKKGKLTWQELYQLKYKGI-NH2 (Palmitoyl-VVAAKKKGKLTWQELYQLKYKGI-NH2; SMILES CCCCCCCCCCCCCCCC(=O)N[C@H](C(=O)N[C@H](C(=O)N[C@@H](C)C(=O)N[C@@H](C)C(=O)N[C@@H](CCCCN)C(=O)N[C@@H](CCCCN)C(=O)N[C@@H](CCCCN)C(=O)NCC(=O)N[C@@H](CCCCN)C(=O)N[C@@H](CC(C)C)C(=O)N[C@H](C(=O)N[C@@H](Cc1c[nH]c2ccccc12)C(=O)N[C@@H](CCC(N)=O)C(=O)N[C@@H](CCC(=O)O)C(=O)N[C@@H](CC(C)C)C(=O)N[C@@H](Cc1ccc(O)cc1)C(=O)N[C@@H](CCC(N)=O)C(=O)N[C@@H](CC(C)C)C(=O)N[C@@H](CCCCN)C(=O)N[C@@H](Cc1ccc(O)cc1)C(=O)N[C@@H](CCCCN)C(=O)NCC(=O)N[C@H](C(N)=O)[C@@H](C)CC)[C@@H](C)O)C(C)C)C(C)C) [VEGF-PA]” the “blood vessels relative to the initial value” [1] was 229%±19% and the “reduction in scratch wound size (denuded area)” value (HUVECs) was 68.7%±4.2%.
